The test system of test [1] is mitochondrial potential. The test can be described thus: Decrease in mitochondrial potential. Type of test: cell-based. The conditions noted are these: 5 μM, within 1 h.
In test [2] the test system is oestrogen receptor ERα. The test can be described thus: ERα expression by real-time PCR. The conditions noted are these: 1 μM. Type of test: cell-based. A general note: Quantitative PCR measures a nucleic acid by following its amplification.
Test [3] concerns MCF7HER2−. The conditions noted are these: FIG. 4, survival, crystal violet.
Protocol: MitoTAX prepared according to Example 6 was tested for its effect on breast cancer cell lines. Lines with different levels of HER2 protein expression and oestrogen receptor α. (ERα) were used. The cell line MCF7 features a relatively low expression of the HER2 protein. For the testing of killing of breast cancer cells with different HER2 protein levels by MitoTAX, we prepared HER2^− and HER^+ MCF7 cells. MCF7 cells were transfected with the vector with a ‘non-silencing’ sequence (NS), with a ‘short hairpin’ sequence attenuating the expression of HER2 (sh) and with the vector with a gene for HER2. […] In the subsequent work, the sublines NS, Sh1 26 (clone 26) and +11 (clone 11) were used.
The individual values were determined from the survival curves of cells at various concentrations of both substances using the crystal violet method.
Test [4] relates to mitochondrial complex I. The test is described as follows: Respiration via mitochondrial complexes I and II, Oxygraf. Type of test: cell-based, human. The conditions noted are these: MCF7 cells, respiration at increasing doses. The text has this:
Respiration (oxygen consumption linked with ATP formation) is related to 10^6 cells and is shown as a relative value with the beginning level of respiration marked with the relative value of 1.

Test [5] relates to MCF7 sublines differing in HER2 levels. The test is described as follows: Formation of reactive oxygen species (ROS). The test is classed as cell-based, human. The conditions noted are these: 5 μM, 1 h exposure. The text has this:
A property typically associated a number of mitocans is their ability to increase oxidative stress (formation of reactive oxygen species, ROS), selectively in cancer cells, especially associated with their action on mitochondrial complexes participating with oxidative phosphorylation. […] We tested formation of ROS also for MitoTAX.

The record followed here is patent US9896466B2 (Smart Brain S.R.O., priority 2013, dated 2018).

As to `N#CC(C#N)=NNc1cccc(Cl)c1` [CCCP], the “reduction of mitochondrial potential” value in test [1] was “reduces the mitochondrial potential to its basal value”.

Turning to `CC/C(=C(\c1ccccc1)c1ccc(OCCN(C)C)cc1)c1ccccc1` [TAX, tamoxifen], the “reduction of ERα expression” value in test [2] was “ineffective”. For the same compound, the “response of line with reduced HER2 expression (clone 26)” value in test [3] is recorded as “exactly opposite”. Also, the “concentration at which complex I is inhibited preferably to complex II” value in test [4] is “exceeding 20 μM”. Also, the “generation of ROS” value in test [5] is reported as “markedly less effective”.
